Data on 18 molecules can be found in US8877744B2, “1,4-Oxazepines as BACE1 and/or BACE2 inhibitors” (Hoffmann-La Roche Inc., priority 2011, dated 2014).

Structures can show the parent of a compound that is named as a salt.

T1 sequence (P56817 46-501): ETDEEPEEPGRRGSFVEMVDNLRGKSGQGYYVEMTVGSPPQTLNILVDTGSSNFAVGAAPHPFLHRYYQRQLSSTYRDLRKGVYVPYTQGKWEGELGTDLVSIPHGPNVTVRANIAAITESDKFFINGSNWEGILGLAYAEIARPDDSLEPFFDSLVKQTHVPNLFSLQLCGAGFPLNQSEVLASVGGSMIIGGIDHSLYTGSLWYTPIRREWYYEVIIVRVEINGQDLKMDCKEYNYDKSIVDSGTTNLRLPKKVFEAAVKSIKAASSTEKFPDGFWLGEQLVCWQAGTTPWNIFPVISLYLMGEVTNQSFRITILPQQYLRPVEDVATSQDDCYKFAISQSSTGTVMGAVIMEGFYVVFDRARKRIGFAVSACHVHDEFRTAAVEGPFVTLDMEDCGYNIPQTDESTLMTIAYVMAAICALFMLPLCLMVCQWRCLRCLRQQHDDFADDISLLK

The first assay has as its target T1, BACE1 (Homo sapiens, UniProt P56817).
T1 construct: endogenous in cells; host or cells: HEK293 stably transfected with human APP695 wt
The experiment in a line: Cellular Aβ-lowering assay a): HEK293 cells expressing human APP695, Aβ40 ELISA. It counts as cell-based. The following applies: Aβ40 in supernatant by ELISA, 18-20 hrs incubation. The method, then:
Cellular Aβ-Lowering Assay:
a) Human HEK293 cells which are stably transfected with a vector expressing a cDNA of the human APP wt gene (APP695) were used to assess the potency of the compounds in a cellular assay. The cells were seeded in 96-well microtiter plates in cell culture medium (Iscove, plus 10% (v/v) fetal bovine serum, glutamine, penicillin/streptomycin) to about 80% confluence and the compounds were added at a 10× concentration in 1/10 volume of medium without FCS containing 8% DMSO (final concentration of DMSO was kept at 0.8% v/v). After 18-20 hrs incubation at 37° C. and 5% CO2 in a humidified incubator the culture supernatant was harvested for the determination of Aβ40 concentrations. 96 well ELISA plates (e.g., Nunc MaxiSorb) were coated with monoclonal antibody which specifically recognize the C-terminal end of Aβ40 (Brockhaus et al., NeuroReport 9, 1481-1486; 1998). After blocking of non-specific binding sites with e.g. 1% BSA and washing, the culture supernatants were added in suitable dilutions together with a horseradish peroxidase-coupled Aβ detection antibody (e.g., antibody 4G8, Senetek, Maryland Heights, Mo.) and incubated for 5 to 7 hrs. Subsequently the wells of the microtiter plate were washed extensively with Tris-buffered saline containing 0.05% Tween 20 and the assay was developed with tetramethylbenzidine/H2O2 in citric acid buffer. After stopping the reaction with one volume 1 N H2SO4 the reaction was measured in an ELISA reader at 450 nm wavelength. The concentrations of Aβ in the culture supernatants were calculated from a standard curve obtained with known amounts of pure Aβ peptide.
As for `CC1(C)OCC(N)=N[C@](C)(c2cc(-c3cccc(C#N)c3)c(F)cc2F)C1(F)F` [Example 28, 5′-((R)-3-Amino-6,6-difluoro-5,7,7-trimethyl-2,5,6,7-tetrahydro-[1,4]oxazepin-5-yl)-2′,4′-difluoro-biphenyl-3-carbonitrile], the 50% inhibitory concentration (IC50) is 0.79 µM.

`CC1(C)OCC(N)=N[C@](C)(c2cc(-c3cncnc3)ccc2F)C1(F)F` [Example 2, (R)-6,6-Difluoro-5-(2-fluoro-5-pyrimidin-5-yl-phenyl)-5,7,7-trimethyl-2,5,6,7-tetrahydro-[1,4]oxazepin-3-ylamine] came in with a half-maximal inhibitory concentration (IC50) of 0.056 µM.

`Cc1nc(C#Cc2ccc(F)c([C@@]3(C)N=C(N)COC(C)(C)C3(F)F)c2)cs1` [Example 17, (R)-6,6-Difluoro-5-[2-fluoro-5-(2-methyl-thiazol-4-ylethynyl)-phenyl]-5,7,7-trimethyl-2,5,6,7-tetrahydro-[1,4]oxazepin-3-ylamine] came in with an IC50 of 0.8 µM.

`CC1(C)OCC(N)=N[C@](C)(c2cc(-c3cc(Cl)cc(Cl)c3)ccc2F)C1(F)F` [Example 10, (R)-5-(3′,5′-Dichloro-4-fluoro-biphenyl-3-yl)-6,6-difluoro-5,7,7-trimethyl-2,5,6,7-tetrahydro-[1,4]oxazepin-3-ylamine] displayed an IC50 of 1.59 µM.

Molecule `CC1(C)OCC(N)=N[C@](C)(c2cc(-c3cncc(Cl)c3)c(F)cc2F)C1(F)F` [Example 26, (R)-5-[5-(5-Chloro-pyridin-3-yl)-2,4-difluoro-phenyl]-6,6-difluoro-5,7,7-trimethyl-2,5,6,7-tetrahydro-[1,4]oxazepin-3-ylamine] returned an IC50 of 0.081 µM.

In the case of `Cn1nccc1-c1ccc(F)c([C@@]2(C)N=C(N)COC(C)(C)C2(F)F)c1` [Example 7, (R)-6,6-Difluoro-5-[2-fluoro-5-(2-methyl-2H-pyrazol-3-yl)-phenyl]-5,7,7-trimethyl-2,5,6,7-tetrahydro-[1,4]oxazepin-3-ylamine], the midpoint of inhibition, the IC50, lay at 0.54 µM.

With `C[C@]1(c2cc(-c3cncnc3)ccc2F)N=C(N)COCC1(F)F` [Example 1, (R)-6,6-Difluoro-5-(2-fluoro-5-pyrimidin-5-yl-phenyl)-5-methyl-2,5,6,7-tetrahydro-[1,4]oxazepin-3-ylamine formate], half-maximal inhibition (IC50) required 0.253 µM.

Molecule `CC1(C)OCC(N)=N[C@](C)(c2cc(-c3nc4ccc(Cl)cc4o3)ccc2F)C1(F)F` [Example 19, (R)-5-[5-(6-Chloro-benzooxazol-2-yl)-2-fluoro-phenyl]-6,6-difluoro-5,7,7-trimethyl-2,5,6,7-tetrahydro-[1,4]oxazepin-3-ylamine hydrochloride] returned an IC50 of 0.25 µM.

In the case of `CC1(C)OCC(N)=N[C@](C)(c2cc(-c3ccc(C#N)cc3F)ccc2F)C1(F)F` [Example 13, 3′-((R)-3-amino-6,6-difluoro-5,7,7-trimethyl-2,5,6,7-tetrahydro-[1,4]oxazepin-5-yl)-2,4′-difluoro-biphenyl-4-carbonitrile], half-maximal inhibition (IC50) was put at 0.092 µM.

Regarding `CC1(C)OCC(N)=N[C@](C)(c2cc(C3CCOCC3)ccc2F)C1(F)F` [Example 8, (R)-6,6-Difluoro-5-[2-fluoro-5-(tetrahydro-pyran-4-yl)-phenyl]-5,7,7-trimethyl-2,5,6,7-tetrahydro-[1,4]oxazepin-3-ylamine], the midpoint of inhibition, the IC50, lay at 0.65 µM.

`CC1(C)OCC(N)=N[C@](C)(c2cc(C#Cc3cccc(Cl)c3)ccc2F)C1(F)F` [Example 9, (R)-5-[5-(3-Chloro-phenylethynyl)-2-fluoro-phenyl]-6,6-difluoro-5,7,7-trimethyl-2,5,6,7-tetrahydro-[1,4]oxazepin-3-ylamine] came in with a half-inhibitory concentration (IC50) of 1.34 µM.

Molecule `CC1(C)OCC(N)=N[C@](C)(c2cc(-c3cncnc3)c(F)cc2F)C1(F)F` [Example 25, (R)-6,6-Difluoro-5-(2,4-difluoro-5-pyrimidin-5-yl-phenyl)-5,7,7-trimethyl-2,5,6,7-tetrahydro-[1,4]oxazepin-3-ylamine] yielded a concentration for half-maximal inhibition (IC50) of 0.007 µM.

For `CC1(C)OCC(N)=N[C@](C)(c2cc(-c3cc(F)cc(F)c3)ccc2F)C1(F)F` [Example 3, (R)-6,6-Difluoro-5,7,7-trimethyl-5-(4,3′,5′-trifluoro-biphenyl-3-yl)-2,5,6,7-tetrahydro-[1,4]oxazepin-3-ylamine], the half-inhibitory concentration (IC50) is 0.18 µM.

Turning to `CC1(C)OCC(N)=N[C@](C)(c2cc(-c3cccc(C#N)c3)ccc2F)C1(F)F` [Example 14, 3′-((R)-3-Amino-6,6-difluoro-5,7,7-trimethyl-2,5,6,7-tetrahydro-[1,4]oxazepin-5-yl)-4′-fluoro-biphenyl-3-carbonitrile], 0.186 µM corresponded to half-maximal inhibition (IC50).

Regarding `CC1(C)OCC(N)=N[C@](C)(c2cc(-c3cnn(-c4ccc(F)cc4)c3)ccc2F)C1(F)F` [Example 6, (R)-6,6-Difluoro-5-{2-fluoro-5-[1-(4-fluoro-phenyl)-1H-pyrazol-4-yl]-phenyl}-5,7,7-trimethyl-2,5,6,7-tetrahydro-[1,4]oxazepin-3-ylamine], the IC50 was 0.52 µM.

`CC1(C)OCC(N)=N[C@](C)(c2cc(-c3cncc(Cl)c3)ccc2F)C1(F)F` [Example 4, (R)-5-[5-(5-Chloro-pyridin-3-yl)-2-fluoro-phenyl]-6,6-difluoro-5,7,7-trimethyl-2,5,6,7-tetrahydro-[1,4]oxazepin-3-ylamine] showed a 50% inhibitory concentration (IC50) of 0.205 µM.

The molecule `CC1(C)OCC(N)=N[C@](C)(c2cc(-c3ccc(C#N)cc3)c(F)cc2F)C1(F)F` [Example 27, 5′-((R)-3-amino-6,6-difluoro-5,7,7-trimethyl-2,5,6,7-tetrahydro-[1,4]oxazepin-5-yl)-2′,4′-difluoro-biphenyl-4-carbonitrile] had an IC50 of 0.43 µM.

Take `CC1(C)OCC(N)=N[C@](C)(c2cc(C3=CCOCC3)ccc2F)C1(F)F` [Example 5, (R)-5-[5-(3,6-Dihydro-2H-pyran-4-yl)-2-fluoro-phenyl]-6,6-difluoro-5,7,7-trimethyl-2,5,6,7-tetrahydro-[1,4]oxazepin-3-ylamine]: the half-maximal inhibitory concentration (IC50) came out at 0.43 µM.

A further assay deals with T2, endogenous cellular BACE2 (Rattus norvegicus, UniProt Q6IE75).
T2 construct: endogenous in cells; host or cells: INS-TMEM27 (INS1e-derived rat cell line with inducible full-length hTMEM27)
T2 sequence (Q6IE75 63-514): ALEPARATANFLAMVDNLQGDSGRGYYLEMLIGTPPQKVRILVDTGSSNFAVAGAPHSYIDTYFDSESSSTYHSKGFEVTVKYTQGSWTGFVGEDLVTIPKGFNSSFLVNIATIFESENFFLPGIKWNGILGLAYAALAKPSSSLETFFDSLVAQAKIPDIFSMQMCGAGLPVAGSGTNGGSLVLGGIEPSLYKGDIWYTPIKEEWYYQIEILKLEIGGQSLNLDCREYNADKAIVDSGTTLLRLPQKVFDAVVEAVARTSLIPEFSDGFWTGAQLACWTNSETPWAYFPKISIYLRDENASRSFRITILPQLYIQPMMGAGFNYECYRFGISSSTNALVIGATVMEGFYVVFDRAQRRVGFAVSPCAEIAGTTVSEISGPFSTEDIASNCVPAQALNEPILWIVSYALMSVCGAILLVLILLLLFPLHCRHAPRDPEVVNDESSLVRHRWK
The assay can be described thus: Assay for BACE inhibition by measuring cellular TMEM27 cleavage (INS-TMEM27 cells, ELISA). It counts as cell-based. The conditions noted are these: INS-TMEM27 (Ins1e rat) cells, shed human TMEM27 by ELISA. The text has this: Assay for BACE Inhibition by Measuring Cellular TMEM27 Cleavage:
The assay uses the principle of inhibition of human TMEM27 cleavage by endogenous cellular BACE2 in the Ins1e rat cell line and shedding from the cell surface into the culture medium, followed by detection in an ELISA assay Inhibition of BACE2 prevents the cleavage and shedding in a dose-dependent manner
The stable cell line “INS-TMEM27” represents an INS1e-derived cell line with inducible expression (using the TetOn system) of full-length hTMEM27 in a doxycycline-dependent manner. The cells are cultured throughout the experiment in RPMI1640+Glutamax (Invitrogen) Penicillin/Streptomycin, 10% Fetal bovine serum, […], […], 100 micrograms/ml G418 and 100 microgram/ml hygromycin and are grown inadherent culture at 37° C. in a standard CO2 cell culture incubator.
INS-TMEM27 cells are seeded in 96-well plates. After 2 days in culture, BACE2 inhibitor is added in a range of concentrations as required by the assay and after a further two hours, doxycycline is added to a final concentration of 500 ng/ml. The cells are incubated for a further 46 hours and the supernatant harvested for detection of shed TMEM27.
An ELISA assay (using a pair of mouse anti-human-TMEM27 antibodies, raised against the extracellular domain of TMEM27) is used for detection of TMEM27 in the culture medium. An EC50 for BACE2 inhibition is calculated using the ELISA readout for each inhibitor concentration with standard curve-fitting software such as XLFit for the Excel spreadsheet program.
Turning to `CC1(C)OCC(N)=N[C@](C)(c2cc(-c3cc(Cl)cc(Cl)c3)ccc2F)C1(F)F` [Example 10, (R)-5-(3′,5′-Dichloro-4-fluoro-biphenyl-3-yl)-6,6-difluoro-5,7,7-trimethyl-2,5,6,7-tetrahydro-[1,4]oxazepin-3-ylamine], inhibition was half-maximal at 1.33 µM (IC50).

In the case of `CC1(C)OCC(N)=N[C@](C)(c2cc(-c3cccc(C#N)c3)ccc2F)C1(F)F` [Example 14, 3′-((R)-3-Amino-6,6-difluoro-5,7,7-trimethyl-2,5,6,7-tetrahydro-[1,4]oxazepin-5-yl)-4′-fluoro-biphenyl-3-carbonitrile], the 50% inhibitory concentration (IC50) is 0.279 µM.

As to `CC1(C)OCC(N)=N[C@](C)(c2cc(-c3cncc(Cl)c3)ccc2F)C1(F)F` [Example 4, (R)-5-[5-(5-Chloro-pyridin-3-yl)-2-fluoro-phenyl]-6,6-difluoro-5,7,7-trimethyl-2,5,6,7-tetrahydro-[1,4]oxazepin-3-ylamine], the IC50 is 0.592 µM.
